Data published in the NIST ThermoML archive (doi:10.1007/s10765-015-1927-y).

Legend:
[1] = xn = mol fraction of the nth substance listed; conditions: 303.15 K, 101 kPa, Liquid; for speed of sound: Frequency=1 MHz
[2] = 303.15 K, 101 kPa, Liquid; for speed of sound: Frequency=1 MHz

CCOC(C)=O [ethyl acetate] + ClC=C(Cl)Cl
[1], x2 = 0
Conditions	mass density [kg/m3]	speed of sound [m/s]	viscosity [mPa·s]
–	888.75	1126	0.424

CCOC(C)=O [ethyl acetate]
[2]
Conditions	mass density [kg/m3]	speed of sound [m/s]	viscosity [mPa·s]
–	888.75	1126	0.424

ClC=C(Cl)Cl [trichloroethene] + CCCOC(C)=O
[1]
Conditions	mass density [kg/m3]	speed of sound [m/s]	viscosity [mPa·s]
x1 = 0.1419	942.22	1126	0.567
x1 = 0.2337	987.22	1112	0.578
x1 = 0.364	1054.63	1094	0.592
x1 = 0.4555	1104.47	1081	0.601
x1 = 0.5827	1177.08	1063	0.61
x1 = 0.6735	1231.75	1050	0.614
x1 = 0.7713	1293.35	1038	0.612
x1 = 0.8922	1374.05	1025	0.604
x1 = 1	1450.9	1016	0.589

CCCCOC(C)=O [butyl ethanoate]
[2]
Conditions	mass density [kg/m3]	speed of sound [m/s]	viscosity [mPa·s]
–	871.07	1170	0.638

ClC=C(Cl)Cl [trichloroethene]
[2]
Conditions	mass density [kg/m3]	speed of sound [m/s]	viscosity [mPa·s]
–	1450.9	1016	0.589

ClC=C(Cl)Cl [trichloroethene] + CCOC(C)=O
[1]
Conditions	mass density [kg/m3]	speed of sound [m/s]	viscosity [mPa·s]
x1 = 0.1325	957.65	1105	0.451
x1 = 0.2099	998.68	1094	0.47
x1 = 0.3674	1083.99	1073	0.501
x1 = 0.4158	1110.76	1067	0.509
x1 = 0.5484	1185.16	1051	0.532
x1 = 0.6854	1263.95	1037	0.552
x1 = 0.8354	1352.1	1025	0.57
x1 = 0.8995	1390.34	1021	0.577
x1 = 1	1450.9	1016	0.589

ClC=C(Cl)Cl [trichloroethene] + CCCCOC(C)=O
[1]
Conditions	mass density [kg/m3]	speed of sound [m/s]	viscosity [mPa·s]
x1 = 0.1739	944.38	1145	0.66
x1 = 0.25	979.14	1135	0.665
x1 = 0.3658	1035.81	1115	0.67
x1 = 0.4722	1092.05	1097	0.666
x1 = 0.5724	1149.11	1080	0.666
x1 = 0.6942	1224.71	1060	0.654
x1 = 0.7761	1279.91	1047	0.644
x1 = 0.9126	1380.34	1027	0.62
x1 = 1	1450.9	1016	0.589

CCCOC(C)=O [propyl ethanoate]
[2]
Conditions	mass density [kg/m3]	speed of sound [m/s]	viscosity [mPa·s]
–	876.55	1148	0.547

CCCCOC(C)=O [butyl ethanoate] + ClC=C(Cl)Cl
[1], x2 = 0
Conditions	mass density [kg/m3]	speed of sound [m/s]	viscosity [mPa·s]
–	871.07	1170	0.638

CCCOC(C)=O [propyl ethanoate] + ClC=C(Cl)Cl
[1], x2 = 0
Conditions	mass density [kg/m3]	speed of sound [m/s]	viscosity [mPa·s]
–	876.55	1148	0.547
